Measurements: article PMC6108835, “Target-Based Discovery of an Inhibitor of the Regulatory Phosphatase PPP1R15B” (Cell, 2018)

Key:
R15B^340–698 = biological target: T1, R15B^340–698 (Homo sapiens, UniProt Q5SWA1); assay: eIF2α pull down with MBP-tagged R15B; type: biochemical; settings: Raphin1 200 μM, P-eIF2α 1 μM
T1 construct: made in house; host or cells: E. coli BL21-Gold (DE3) pLysS
Protocol: Recombinant eIF2α was produced as described in [Ito et al. (2004)] and pull down experiments were carried out as previously described ([Carrara et al., 2017]). Amylose beads (New England BioLabs) were pre-equilibrated with interaction buffer (50 mM Tris pH 7.4, 200 mM NaCl, 0.05% Tween20). 20 μL amylose beads were incubated with purified MBP-tagged R15s (200 nM), P-eIF2α (1 μM) as appropriate, plus 200 μM Raphin1, or DMSO vehicle in a total volume of 200 μL. Input samples (5%) was removed at this step, and added to 4% SDS-Laemmli sample buffer. Beads were incubated for 10 min at 4°C with 20 rpm gentle rotation. The beads were washed 5 × 1 mL with interaction buffer, transferred to a fresh tube and finally resuspended with 50 μL 4% SDS-Laemmli sample buffer. Eluded beads were boiled and then run on 4%–12% NuPAGE Bis-Tris gels (ThermoFisher Scientific). Anti-MBP HRP (New England BioLabs (#E8038); 1:5,000) (to probe for R15s) and anti-eIF2α (AbCam (#ab26197); 1:1,000) antibodies were used for immunoblotting analyses of samples.

HD^82Q mice = assay: Treatment of HD^82Q (N171-82Q) mice, model of Huntington's disease; type: in vivo, mouse
Protocol: To produce an experimental group, HD^82Q transgenic males were crossed with C3H/B6 F1 wild-type females. 4 weeks old treatment- and test-naive transgenic mice and their wild-type littermate controls were randomized in different groups and treated with Raphin1 for the indicated time. Only males HD^82Q were used. Mice weight was collected weekly or bi-weekly.
Mice were culled by cervical dislocation, a part of cortex was extracted, fresh-frozen in liquid nitrogen and kept at −80°C until use. Tissue was homogenized and lysed in Laemmli Buffer (1 mL for 0.5 mg tissue). Lysates were boiled at 95°C for 5 min, sonicated and resolved on Bolt SDS-PAGE 4%–12% Bis-Tris gels (ThermoFisher Scientific). Proteins were transferred to the nitrocellulose membrane (Bio-Rad). Membrane was blocked in 5% skimmed milk for 30 min and then probed with primary antibodies followed by incubation with the appropriate horseradish peroxidase-conjugated secondary antibodies (Promega). Proteins were visualized using ECL Prime (GE Healthcare) and imaged in the Chemi-Smart 5000 (Vilber-Lourmat, France). SDS-resistant huntingtin assemblies were quantified using ImageJ (NIH, USA). The huntingtin assemblies were analyzed using the huntingtin 2B4 antibody (Euromedex (#HU-2B4), 1:1,000).
Mice were culled by cervical dislocation, a brain was fresh frozen in the O.C.T. compound (VWR International) and sectioned (14 μm) using Cryostat (Leica CM3050 S). […]
For quantification, motor cortex was imaged using a Nikon TiE automated fluorescence microscope under the control of NIS Elements software (Nikon UK). Images were taken using a 40X 0.95 NA lens, fluorescence filter sets matched to Hoechst 33342 and Alexa 488 and an Andor Neo sCMOS camera. […] Images were analyzed using the ‘general analysis’ tool in NIS Elements. […] The total number of nuclei per field and the total number of inclusions inside nuclei per field were counted in each filed. […] To check for systematic bias in our analysis due to variations in sample processing we also measured the average fluorescence intensity across the whole field. […]

[1] = Monitoring Raphin1 stability in cell culture media; type: physicochemical; settings: 10 μM, 37°C, 0-10 hr, mass spectrometry
Protocol: Raphin1, 10 μM (from a 10 mM DMSO stock), was added to 20 mL of pre-warmed water or cell culture media, in tightly-sealed 20 mL glass vials to reduce evaporation and incubated in an incubator at 37°C. 50 μL samples were taken at 0, 1, 2, 5, 7.5 and 10 hr and added to an Eppendorf tube containing 200 μL of chilled acetonitrile and internal standards. The samples were stored in a −20°C freezer until the end of the study. The samples were then analyzed by mass spectrometry using a TQ-S micro Triple Quadrupole from Waters and compared against a standard curve prepared in the same manner as the samples.

R15A = R15A (Homo sapiens, UniProt O75807); assay: R15A levels on immunoblots of HeLa cell lysates; type: cell-based; set-up: endogenous in cells; host or cells: HeLa; settings: HeLa cells, Raphin1 10 μM
Protocol: HeLa or MEF cells (90,000 cells/mL) were plated in 12-well plates (1 mL/well). The following day cells were treated as indicated; the medium was removed, fresh medium containing compound added and incubated at 37°C for the times indicated. The time course was performed in reverse order to facilitate collecting all samples at the same time. At the end of treatment cells were washed two times with ice-cold PBS and lysed in 150 μL Laemmli Buffer. Lysates were transferred to 1.5 mL eppendorf tubes, boiled at 95°C for 5 min, sonicated and resolved on Bolt SDS-PAGE 4%–12% Bis-Tris gels (ThermoFisher Scientific). Proteins were transferred to the nitrocellulose membrane using the iBlot 2 system (ThermoFisher Scientific). Membrane was blocked in 5% skimmed milk for 30 min and then probed with primary antibodies followed by incubation with the appropriate horseradish peroxidase-conjugated secondary antibodies (Promega). Proteins were visualized using ECL Prime (GE Healthcare) and imaged in the Chemi-Smart 5000 (Vilber-Lourmat, France) or ChemiDoc Touch (BioRad). Bands were quantified using ImageJ (NIH, USA). […]

PP1c = PP1c (Homo sapiens, UniProt P36873); assay: PP1c catalytic activity assay (DiFMUP, EnzChek); settings: his-PP1c 30 nM
Protocol: Residual activity of PP1c was measured using the EnzChek Phosphatase Assay Kit (ThermoFisher Scientific) according to the supplier’s instructions, with minor modifications.

[2] = HD^82Q mice, 2 mg/kg daily from 4 weeks of age, 2-month-old

PP1c, sequence (P36873 1-322): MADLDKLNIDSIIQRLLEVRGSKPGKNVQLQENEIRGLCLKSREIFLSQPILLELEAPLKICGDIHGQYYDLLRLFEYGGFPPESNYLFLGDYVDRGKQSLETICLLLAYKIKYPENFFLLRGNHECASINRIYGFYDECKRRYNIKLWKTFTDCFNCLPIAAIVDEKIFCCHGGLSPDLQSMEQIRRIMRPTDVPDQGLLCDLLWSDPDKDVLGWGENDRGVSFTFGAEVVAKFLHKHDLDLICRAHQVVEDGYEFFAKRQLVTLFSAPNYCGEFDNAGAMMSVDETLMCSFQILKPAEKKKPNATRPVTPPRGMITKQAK
T1 sequence (Q5SWA1 340-698): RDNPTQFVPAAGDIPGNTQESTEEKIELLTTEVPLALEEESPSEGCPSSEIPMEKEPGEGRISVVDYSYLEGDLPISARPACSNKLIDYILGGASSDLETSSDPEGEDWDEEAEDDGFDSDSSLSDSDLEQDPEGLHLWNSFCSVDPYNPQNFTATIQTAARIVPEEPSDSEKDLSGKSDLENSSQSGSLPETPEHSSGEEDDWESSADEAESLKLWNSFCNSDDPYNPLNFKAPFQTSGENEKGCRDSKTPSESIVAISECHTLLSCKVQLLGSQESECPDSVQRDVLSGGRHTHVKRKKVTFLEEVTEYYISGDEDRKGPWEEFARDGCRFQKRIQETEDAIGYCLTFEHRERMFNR
R15A, sequence (O75807 whole entry, stated change not applied): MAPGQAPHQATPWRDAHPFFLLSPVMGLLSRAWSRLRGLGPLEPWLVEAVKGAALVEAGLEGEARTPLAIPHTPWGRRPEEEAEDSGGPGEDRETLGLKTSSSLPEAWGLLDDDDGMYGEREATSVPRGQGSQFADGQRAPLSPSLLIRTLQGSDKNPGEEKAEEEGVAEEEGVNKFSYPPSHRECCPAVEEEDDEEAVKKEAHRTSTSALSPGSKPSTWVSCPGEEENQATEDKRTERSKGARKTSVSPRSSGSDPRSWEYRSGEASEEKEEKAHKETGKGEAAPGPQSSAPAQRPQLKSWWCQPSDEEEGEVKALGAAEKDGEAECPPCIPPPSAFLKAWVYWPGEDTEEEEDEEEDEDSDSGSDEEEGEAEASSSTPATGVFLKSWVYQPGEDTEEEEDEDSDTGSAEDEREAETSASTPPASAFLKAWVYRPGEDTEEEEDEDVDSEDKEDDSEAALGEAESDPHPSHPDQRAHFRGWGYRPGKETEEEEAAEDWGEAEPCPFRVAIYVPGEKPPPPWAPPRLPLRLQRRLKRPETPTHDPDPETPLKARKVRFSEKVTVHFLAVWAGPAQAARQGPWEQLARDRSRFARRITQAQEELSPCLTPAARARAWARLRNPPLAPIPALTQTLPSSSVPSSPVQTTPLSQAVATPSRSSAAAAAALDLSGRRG

## [H]/N=C(\N)NN=Cc1cccc(Cl)c1Cl [Raphin1, (E)-2-(2,3-dichlorobenzylidene)hydrazine-1-carboximidamide]
R15B^340–698
  Recruitment of eIF2α to R15B: decreased
HD^82Q mice; 2 mg/kg once a day by oral gavage from 4 to ∼10 weeks of age
  Weight of HD^82Q mice: improved
HD^82Q mice; [2]
  Nuclear huntingtin inclusions in the cortex: decreased
  SDS-insoluble huntingtin assemblies in cortex: decreased
[1]
  Stability in cell culture media over time: stable
R15A
  R15A levels (decrease): not observed
PP1c
  Inhibition of PP1c (dephosphorylation of difluoro-4-methylumbelliferyl phosphate): did not inhibit
